Reference: US5536723A, “S-nitroso derivatives of hydrazinoacetic acids, 1-[(acylthio and (mercapto)-1-oxoalkyl]-1,2,34-Tetrahydroquinoline-2-carboxylic acids and alanyl prolines and isoquinolines” (Brigham & Women's Hospital, priority 1994, dated 1996)
Entries after “also recorded” stand apart in the source; their conditions may differ.

How the values were obtained:
[1] = system: bovine femoral artery, contraction to angiotensin I; experiment: contraction of the bovine femoral artery to angiotensin I; conditions: for Contraction to Agonist: Angiotensin I
Method: The data are expressed as a percentage of the maximal response to norepinephrine (10^-6 M) and are shown as mean ±SEM in each group (n=7).
(§1) Blood Vessel Preparation. Bovine coronary or femoral arteries were obtained from an abattoir immediately after sacrifice of two- to four-week-old calves. Immediately after removal, the vessel was placed in ice-cold physiologic salt solution (PSS) containing 118.3 mM NaCl, 4.7 mM KCl, 2.5 mM CaCl2, 1.2 mM MgSO4, 1.2 mM KH2 PO4, 25.0 mM NaHCO3, 11.1 mM glucose, and 0.026 mM calcium disodium (ethylenedinitrilo)-tetraacetate. The vessels were then cleaned of adventitial tissue and cut into rings of approximately 5 mm lengths. When called for by the protocol, endothelium was removed from a ring by gently rubbing the luminal surface with a watchmaker's forceps. Vascular rings with intact endothelium were then suspended in organ chambers containing 25 ml of PSS at 37° aerated with 95% O2 -5% CO2. The rings were connected to force transducers (Grass FT03C, Quincy, Mass.) and changes in isometric force recorded continuously (Grass Polygraph Model 79B) over a period of 90 minutes. The optimal length-tension relationship was determined for each ring by observing the response to 10^-6 M norepinephrine after increments in tension of 0.5 gm. The functional integrity of the endothelium was assessed by contracting the vessel with 10^-6 M norepinephrine and then observing the response to 3×10^-7 M acetylcholine chloride.

[2] = system: bovine femoral artery, contraction to angiotensin II; experiment: contraction of the bovine femoral artery to angiotensin II; conditions: for Contraction to Agonist: Angiotensin II
Method: The data are expressed as a percentage of the maximal response to norepinephrine (10^-4 M) and are shown as mean ±SEM in each group (n=6).
as §1

[3] = system: bovine femoral artery; experiment: relaxation of isolated bovine femoral artery rings contracted with norepinephrine; conditions: methylene blue 10^-5 M; FIG. 4
Method: FIG. 2 depicts a graph showing the effect of S-nitrosocaptopril on the contraction of bovine femoral arteries to norepinephrine.
as §1
Vascular ring segments with intact endothelium were […] contracted with a concentration of norepinephrine inducing a half-maximal response. After a stable contraction had been achieved, the tissue was exposed to increasing concentrations of S-nitrosocaptopril in cumulative half-log increments. […] The apparent IC50 is approximately 1 μM.

[4] = system: bovine coronary artery; experiment: relaxation of isolated bovine coronary artery rings contracted with potassium chloride
Text: FIG. 5 depicts a graph showing the relaxation to sodium nitroprusside in the bovine coronary artery in the presence (o; n=7) or absence (; n:12) of a subthreshhold dose of S-nitrosocaptopril. The data are expressed as a percentage of the initial tension generated by potassium chloride (4×10^-2 M; coronary arteries) and are shown as mean ±SEM in each group.
as §1
Thus, to study vasodilating agents in this tissue the vessels were first contracted with potassium chloride (40 mM). Relaxations are expressed as a percent of the concentration to 40 mM potassium chloride.
Relaxations to S-nitrosocaptopril were inhibited by the antagonist of soluble guanylate cyclase, methylene blue (FIG. 4). Sodium nitroprusside induced dose-dependent relaxations of contractions to potassium chloride. The relaxation to sodium nitroprusside was inhibited by subthreshold doses of S-nitrosocaptopril (FIG. 5).

[5] = -Log M 6, Sar 10^-7 M, * p < 0.05
[6] = -Log M 6.5, Sar 10^-7 M, * p < 0.05
[7] = -Log M 7, Sar 10^-7 M, * p < 0.05
[8] = -Log M 7.5, Sar 10^-7 M, * p < 0.05
[9] = -Log M 8, Sar 10^-7 M, * p < 0.05
[10] = saralasin, lower concentrations than 10^-8 M

With `CNCC(=O)N[C@@H](CCCN=C(N)N)C(=O)N[C@H](C(=O)N[C@@H](Cc1ccc(O)cc1)C(=O)N[C@H](C(=O)N[C@@H](Cc1cnc[nH]1)C(=O)N1CCC[C@H]1C(=O)N[C@@H](C)C(=O)O)C(C)C)C(C)C` [saralasin] the “Contraction to Agonist” value [1, 5] was 0.9 ± 0.9 percentage of the maximal cont, the “Contraction to Agonist” value ([1]; -Log M 6, Sar 10^-8 M) was 35.5 ± 7.0 percentage of the maximal cont and the “Contraction to Agonist” value ([1]; -Log M 6, Sar 10^-9 M) was 25.6 ± 13.0 percentage of the maximal cont. For the same compound, the “Contraction to Agonist” value [1, 6] was 0 percentage of the maximal cont, the “Contraction to Agonist” value ([1]; -Log M 6.5, Sar 10^-8 M) was 35.7 ± 22.1 percentage of the maximal cont and the “Contraction to Agonist” value ([1]; -Log M 6.5, Sar 10^-9 M) was 31.4 ± 10.7 percentage of the maximal cont. The “Contraction to Agonist” value [1, 7] was 0 percentage of the maximal cont, the “Contraction to Agonist” value ([1]; -Log M 7, Sar 10^-8 M, * p < 0.05) was 19.6 ± 7.0 percentage of the maximal cont and the “Contraction to Agonist” value ([1]; -Log M 7, Sar 10^-9 M) was 33.0 ± 12.6 percentage of the maximal cont. For the same compound, the “Contraction to Agonist” value [1, 8] was 0 percentage of the maximal cont, the “Contraction to Agonist” value ([1]; -Log M 7.5, Sar 10^-8 M, * p < 0.05) was 16.3 ± 9.4 percentage of the maximal cont and the “Contraction to Agonist” value ([1]; -Log M 7.5, Sar 10^-9 M) was 22.6 ± 10.1 percentage of the maximal cont. For the same compound, the “Contraction to Agonist” value [1, 9] was 0 percentage of the maximal cont, the “Contraction to Agonist” value ([1]; -Log M 8, Sar 10^-8 M) was 7.9 ± 7.9 percentage of the maximal cont and the “Contraction to Agonist” value ([1]; -Log M 8, Sar 10^-9 M) was 3.9 ± 1.5 percentage of the maximal cont. For the same compound, the “Contraction to Agonist” value ([1]; -Log M 8.5, Sar 10^-7 M) was 0 percentage of the maximal cont, the “Contraction to Agonist” value ([1]; -Log M 8.5, Sar 10^-8 M) was 1.6 ± 1.6 percentage of the maximal cont and the “Contraction to Agonist” value ([1]; -Log M 8.5, Sar 10^-9 M) was 0 percentage of the maximal cont. For the same compound, the “Contraction to Agonist” value ([1]; -Log M 9, Sar 10^-7 M) was 0 percentage of the maximal cont, the “Contraction to Agonist” value ([1]; -Log M 9, Sar 10^-8 M) was 0 percentage of the maximal cont and the “Contraction to Agonist” value ([1]; -Log M 9, Sar 10^-9 M) was 0 percentage of the maximal cont. The “effect of saralasin on contractions to angiotensin I (in words)” value (“effect … to angiotensin I (in words)” below) ([1]; saralasin 10^-7 M) was “attenuated contractions”, the “effect … to angiotensin I (in words)” value ([1]; saralasin 10^-8 M) was “inhibited contractions to angiotensin I” and the “effect … to angiotensin I (in words)” value [1, 10] was “no effect”. For the same compound, the “Contraction to Agonist” value [2, 5] was 6.0 percentage of the maximal cont, the “Contraction to Agonist” value ([2]; -Log M 6, Sar 10^-8 M) was 32.8 ± 21.0 percentage of the maximal cont and the “Contraction to Agonist” value ([2]; -Log M 6, Sar 10^-9 M) was 51.8 ± 18.8 percentage of the maximal cont. The “Contraction to Agonist” value [2, 6] was 9.2 ± 5.3 percentage of the maximal cont, the “Contraction to Agonist” value ([2]; -Log M 6.5, Sar 10^-8 M) was 32.8 ± 20.4 percentage of the maximal cont and the “Contraction to Agonist” value ([2]; -Log M 6.5, Sar 10^-9 M) was 51.8 ± 18.8 percentage of the maximal cont. The “Contraction to Agonist” value [2, 7] was 3.2 ± 1.8 percentage of the maximal cont, the “Contraction to Agonist” value ([2]; -Log M 7, Sar 10^-8 M) was 32.4 ± 17.3 percentage of the maximal cont and the “Contraction to Agonist” value ([2]; -Log M 7, Sar 10^-9 M) was 51.8 ± 18.8 percentage of the maximal cont. The “Contraction to Agonist” value [2, 8] was 2.8 ± 2.8 percentage of the maximal cont, the “Contraction to Agonist” value ([2]; -Log M 7.5, Sar 10^-8 M) was 24.0 ± 13.8 percentage of the maximal cont and the “Contraction to Agonist” value ([2]; -Log M 7.5, Sar 10^-9 M) was 43.4 ± 16.9 percentage of the maximal cont. For the same compound, the “Contraction to Agonist” value [2, 9] was 1.7 ± 1.7 percentage of the maximal cont, the “Contraction to Agonist” value ([2]; -Log M 8, Sar 10^-8 M) was 10.7 ± 8.1 percentage of the maximal cont and the “Contraction to Agonist” value ([2]; -Log M 8, Sar 10^-9 M) was 34.0 ± 12.9 percentage of the maximal cont. The “Contraction to Agonist” value ([2]; -Log M 8.5, Sar 10^-7 M) was 0 percentage of the maximal cont, the “Contraction to Agonist” value ([2]; -Log M 8.5, Sar 10^-8 M) was 0.9 ± 0.9 percentage of the maximal cont and the “Contraction to Agonist” value ([2]; -Log M 8.5, Sar 10^-9 M) was 18.5 ± 9.6 percentage of the maximal cont. For the same compound, the “Contraction to Agonist” value ([2]; -Log M 9, Sar 10^-7 M) was 0 percentage of the maximal cont, the “Contraction to Agonist” value ([2]; -Log M 9, Sar 10^-8 M) was 0 percentage of the maximal cont and the “Contraction to Agonist” value ([2]; -Log M 9, Sar 10^-9 M) was 2.4 ± 1.2 percentage of the maximal cont. The “effect of saralasin on contractions to angiotensin II (in words)” value ([2]; saralasin 10^-7 M) was “attenuated contractions” and the “effect of saralasin on contractions to angiotensin II (in words)” value [2, 10] was “no effect”.

With “angiotensin II: powerful pressor agent; agonist (DRVYIHPF; Angiotensin-2; UniProt P01019 25-32, looked up)” the “Contraction to Agonist” value ([2]; -Log M 6, Sar 0 (control)) was 57.9 ± 3.1 percentage of the maximal cont, the “Contraction to Agonist” value ([2]; -Log M 6.5, Sar 0 (control)) was 57.1 ± 3.1 percentage of the maximal cont and the “Contraction to Agonist” value ([2]; -Log M 7, Sar 0 (control)) was 47.2 ± 2.9 percentage of the maximal cont. For the same compound, the “Contraction to Agonist” value ([2]; -Log M 7.5, Sar 0 (control)) was 40.3 ± 2.6 percentage of the maximal cont, the “Contraction to Agonist” value ([2]; -Log M 8, Sar 0 (control)) was 28.8 ± 1.7 percentage of the maximal cont and the “Contraction to Agonist” value ([2]; -Log M 8.5, Sar 0 (control)) was 11.8 ± 1.1 percentage of the maximal cont. For the same compound, the “Contraction to Agonist” value ([2]; -Log M 9, Sar 0 (control)) was 0 percentage of the maximal cont, the “maximum contraction response to angiotensin II” value ([2]; n=6) was 6.4 ± 2.5 g and the EC50 ([2]; n=6, read-out: average ED50 of contraction to angiotensin II) was 8.3 nM. The “maximum response to angiotensin II” value ([2]; without S-nitrosocaptopril, n=5) was 55.8±6.9 % of the maximal response to norepinephrine.

With `CN(C)c1ccc2nc3ccc(=[N+](C)C)cc-3sc2c1` [methylene blue] the “effect of methylene blue on relaxations to S-nitrosocaptopril, femoral artery (in words)” value [3] was “significantly less than control (p<0.05)” and the “effect of methylene blue on relaxations to S-nitrosocaptopril, coronary artery (in words)” value ([4]; methylene blue 10^-5 M, FIG. 4) was “significantly less than control (p<0.05); also recorded: inhibited”.

In the case of “angiotensin I: agonist; converted by ACE to angiotensin II by removal of the carboxy terminal His-Leu (DRVYIHPFHL; Angiotensin-1; UniProt P01019 25-34, looked up)”, the “Contraction to Agonist” value ([1]; -Log M 6, Sar 0 (control)) is reported as 45.3 ± 13.5 percentage of the maximal cont, the “Contraction to Agonist” value ([1]; -Log M 6.5, Sar 0 (control)) is reported as 42.5 ± 13.4 percentage of the maximal cont and the “Contraction to Agonist” value ([1]; -Log M 7, Sar 0 (control)) is reported as 38.6 ± 15.9 percentage of the maximal cont. The “Contraction to Agonist” value ([1]; -Log M 7.5, Sar 0 (control)) was 27.7 ± 12.7 percentage of the maximal cont, the “Contraction to Agonist” value ([1]; -Log M 8, Sar 0 (control)) was 12.6 ± 11.4 percentage of the maximal cont and the “Contraction to Agonist” value ([1]; -Log M 8.5, Sar 0 (control)) was 3.3 ± 5.9 percentage of the maximal cont. For the same compound, the “Contraction to Agonist” value ([1]; -Log M 9, Sar 0 (control)) was 0 percentage of the maximal cont and the “maximum contraction response to angiotensin I” value ([1]; n=11) was 4.4 ± 1.6 g.

`[Cl-].[K+]` [potassium chloride] was tested, and the “stable contraction induced by potassium chloride” value ([4]; 40 mM) was 7.3 ± 4.3 g.
